# Assay results reported in patent US20200407398A1, “Short Proline-Rich Lipopeptide Potentiates Minocycline and Rifampicin Against Multidrug-and Extensively Drug-Resistant Pseudomonas Aeruginosa” (priority 2018, published 2020).
# Peptide text beside a SMILES is read from it. * marks the point of attachment. Acetyl(1-adamantyl) = O=C(CC12CC3CC(CC(C3)C1)C2)*; Lauroyl = CCCCCCCCCCCC(=O)*; Octanoyl = CCCCCCCC(=O)*
# Assays:
# [1] = tested on: pig erythrocytes; format: cell-based; settings: red cells of porcine
# Protocol: Since PRAMPs are able to kill bacteria through membrane lysis, it is imperative to evaluate whether these synthesized SPRLPs also lyse eukaryotic membranes. The ability to lyse porcine red blood cells was assessed and the minimum concentration to result in 5% erythrocyte hemolysis (MHC) was reported (Tables 2 & 3). […] This greatly limits their therapeutic potential. […] However, all other SPRLPs were non-hemolytic (MHC>512 μg/mL).
# The ability of SPRLPs to lyse eukaryotic red blood cells were quantified by the amount of hemoglobin released upon incubation with pig erythrocytes, following published protocols (37, 39). Fresh pig blood drawn from pig antecubital vein was centrifuged at 1000×g for 5 minutes at 4° C., washed with PBS three times and re-suspended in the same buffer, consecutively. Then, agents of interest were 2-fold serially diluted in PBS on 96-well plate and mixed with equal volumes of erythrocyte solution. Post 1-hour incubation at 37° C., intact cells were pelleted by centrifugation at 1000×g for 5 minutes at 4° C. The supernatant was then transferred to a new 96-well plate. The hemoglobin released was measured via EMax Plus microplate reader (Molecular Devices, USA) at 570 nm wavelength. Erythrocytes in PBS with or without 0.1% Triton X-100 was used as negative or positive control, respectively.
# [2] = tested on: wild-type and MDR/XDR P. aeruginosa clinical isolates; settings: checkerboard assay; P. aeruginosa
# Protocol: We evaluated the activity of SPRLPs in combination with fifteen clinically-used antibiotics against P. aeruginosa. Antibiotics tested included fluoroquinolones (moxifloxacin, ciprofloxacin and levofloxacin), aminoglycosides (gentamicin, tobramycin and amikacin), cephalosporins (ceftazidime and cefotaxime), carbapenems (meropenem and doripenem), aztreonam, rifampicin, minocycline, colistin and fosfomycin. The SPRLPs were screened initially at a fixed concentration of 8 μg/mL (5 μM) in combination with antibiotics against wild-type P. aeruginosa PAO1. We assessed potentiation by at least a four-fold absolute MIC reduction of the antibiotic, after which synergism was further validated by a conventional checkerboard assay. A fractional inhibitory concentration (FIC) index of ≤0.5, 0.5<x≤4 or >4 was interpreted as synergistic, indifferent or antagonistic interaction, respectively (31). FIC index was obtained by adding the FIC values of the antibiotic and the SPRLP adjuvant. FIC of antibiotics was calculated by dividing the MIC of the antibiotic in the presence of the adjuvant by the MIC of the antibiotic alone. Similarly, the FIC of adjuvant was calculated via dividing the MIC of the adjuvant in the presence of the antibiotic by the MIC of the adjuvant alone.
# (§1) Isolates used in this study were either obtained from the American Type Culture Collection (ATCC), the Canadian National Intensive Care Unit (CAN-ICU) surveillance study (27) or the Canadian Ward Surveillance (CANWARD) study (28). Clinical isolates belonging to the CAN-ICU and CANWARD studies were recovered from patients suffering a presumed infectious disease entering or admitted in a participating medical center across Canada during the time of study. MDR P. aeruginosa strains in this study refer to those that are resistant to aminoglycosides, fluoroquinolones, cephalosporins, and carbapenems while XDR strains are those that are resistant to aminoglycosides, fluoroquinolones, cephalosporins, carbapenems, aztreonam and penicillin+β-lactamase inhibitor combination (39, 40).
# (§2) Microbroth dilution susceptibility test following the Clinical and Laboratory Standards Institute (CLSI) guidelines (32) was performed to assess the in vitro antibacterial activity of SPRLPs. Overnight grown bacterial cultures were diluted in saline to achieve a 0.5 McFarland turbidity, followed by 1:50 dilution in Mueller-Hinton broth (MHB) for inoculation to a final concentration of 5×10^5 colony forming units/mL. The assay was done on a 96-well plate to which the agents of interest were 2-fold serially diluted in MHB and incubated with equal volumes of inoculum at 37° C. for 18 hours. MIC was determined as the lowest concentration to inhibit visible bacterial growth in form of turbidity, which was confirmed using EMax Plus microplate reader (Molecular Devices, USA) at a wavelength of 590 nm. The well containing MHB broth with or without bacterial cells was used as positive or negative control, respectively.
# The assay was performed on a 96-well plate, to which the agents of interest was 2-fold serially diluted in working MHB. Prior to serial dilution, SPRLP was added to the working MHB media so that a fixed final concentration of 8 μg/mL (5 μM) SPRLP per well was achieved. To ensure that the assay was working, the MIC determination test of the studied antibiotic (without SPRLP) was included on the same plate. Similar MIC results between the assay comparator and an independent MIC determination test (on a different plate) ensured validity of the synergy test. Overnight grown bacterial cultures were diluted in saline to 0.5 McFarland turbidity, followed by 1:50 dilution in MHB (without SPRLP) and inoculation into each well to a final concentration of approximately 5×10^5 colony forming units/mL. Wells containing only MHB (without SPRLP) with or without bacterial cells were used as positive or negative control, respectively.
# [3] = tested on: methicillin-resistant S. aureus ATCC 33592; format: cell-based
# Protocol: (§3) The synthesized SPRLPs were evaluated for their antibacterial potency against a panel of Gram-positive and Gram-negative bacteria (Tables 2 & 3). Some of the included pathogens were collected from patients visiting or admitted to participating Canadian hospitals through the CAN-ICU (27) and CANWARD (28) national surveillance studies. Antibacterial activity was assessed using minimum inhibitory concentration (MIC) against various clinical pathogens.
# as §1, §2
# [4] = tested on: E. coli ATCC 25922; format: cell-based
# Protocol: as §3, §1, §2
# [5] = tested on: E. coli CANWARD-2011 97615 (gentamicin-, tobramycin-, ciprofloxacin-resistant) aac(3′)iia; format: cell-based
# Protocol: as §3, §1, §2
# [6] = tested on: S. aureus ATCC 29213; format: cell-based
# Protocol: as §3, §1, §2
# [7] = tested on: P. aeruginosa CAN-ICU 62308 (gentamicin-resistant); format: cell-based
# Protocol: as §3, §1, §2
# [8] = tested on: A. baumannii CAN-ICU 63169; format: cell-based
# Protocol: as §3, §1, §2
# [9] = tested on: K. pneumoniae ATCC 13883; format: cell-based
# Protocol: as §3, §1, §2
# [10] = tested on: methicillin-resistant S. epidermidis CAN-ICU 61589 (ceftazidime-resistant); format: cell-based; settings: methicillin-resistant CAN-ICU 61589 (ceftazidime-resistant)
# Protocol: as §3, §1, §2
# [11] = tested on: methicillin-susceptible Staphylococcus epidermidis CANWARD-2008 81388; format: cell-based; settings: methicillin-susceptible CANWARD-2008 81388
# Protocol: as §3, §1, §2
# [12] = tested on: P. aeruginosa wild-type PAO1; format: cell-based
# Protocol: as §3, §1, §2
# [13] = tested on: P. aeruginosa CANWARD-2011 96846 (gentamicin-, tobramycin-resistant); format: cell-based
# Protocol: as §3, §1, §2
# [14] = tested on: E. faecium ATCC 27270; format: cell-based
# Protocol: as §3, §1, §2
# [15] = tested on: P. aeruginosa ATCC 27853; format: cell-based
# Protocol: as §3, §1, §2
# [16] = tested on: E. faecalis ATCC 29212; format: cell-based
# Protocol: as §3, §1, §2
# [17] = tested on: E. coli CAN-ICU 61714 (gentamicin-resistant); format: cell-based
# Protocol: as §3, §1, §2
# [18] = tested on: E. coli CAN-ICU 63074 (amikacin-intermediate resistant); format: cell-based
# Protocol: as §3, §1, §2
# [19] = tested on: S. maltophilia CAN-ICU 62584; format: cell-based
# Protocol: as §3, §1, §2
SMILES,MHC (minimum concentration that resulted in 5% red blood cell hemolysis) [1] [µg/mL],interaction with minocycline (in words) [2],interaction with rifampicin (in words) [2],MIC [3] [µg/mL],MIC [4] [µg/mL],MIC [5] [µg/mL],MIC [6] [µg/mL],MIC [7] [µg/mL],MIC [8] [µg/mL],MIC [9] [µg/mL],MIC [10] [µg/mL],MIC [11] [µg/mL],MIC [12] [µg/mL],MIC [13] [µg/mL],MIC [14] [µg/mL],MIC [15] [µg/mL],MIC [16] [µg/mL],MIC [17] [µg/mL],MIC [18] [µg/mL],MIC [19] [µg/mL]
"CCCCCCCC(=O)N1CCC[C@H]1C(=O)N[C@@H](CCCNC(=N)N)C(=O)N1CCC[C@H]1C(=O)N[C@@H](CCCNC(=N)N)C(=O)N1CCC[C@H]1C(=O)N[C@@H](CCCNC(=N)N)C(=O)N1CCC[C@H]1C(N)=O [Compound C8-PRP, CH3(CH2)6CO-PRPRPRP-NH2] (Octanoyl-PRPRPRP-NH2)",>512,indifferent interaction,indifferent interaction,>128,>128,>128,>128,>128,>128,>128,>128,>128,>512,>128,>128,>128,>128,>128,>128,>128
"CCCCCCCC(=O)N1CCC[C@H]1C(=O)N[C@@H](CCCNC(=N)N)C(=O)N1CCC[C@H]1C(=O)N[C@@H](CC(C)C)C(=O)N1CCC[C@H]1C(=O)N[C@@H](CCCNC(=N)N)C(=O)N1CCC[C@H]1C(N)=O [Compound C8-PLP, CH3(CH2)6CO-PRPLPRP-NH2] (Octanoyl-PRPLPRP-NH2)",>512,–,–,>128,>128,>128,>128,>128,>128,>128,>128,>128,>512,>128,>128,>128,>128,>128,>128,>128
"N=C(N)NCCC[C@H](NC(=O)[C@@H]1CCCN1C(=O)[C@H](Cc1c[nH]c2ccccc12)NC(=O)[C@@H]1CCCN1C(=O)[C@H](CCCNC(=N)N)NC(=O)[C@@H]1CCCN1C(=O)CC12CC3CC(CC(C3)C1)C2)C(=O)N1CCC[C@H]1C(N)=O [Ad-PWP, Adamantyl-CH2CO-PRPWPRP-NH2] ({Acetyl(1-adamantyl)}-PRPWPRP-NH2)",>512,–,–,>128,>128,>128,>128,>128,>128,>128,>128,>128,>512,>128,>128,>128,>128,>128,>128,>128
"N=C(N)NCCC[C@H](NC(=O)[C@@H]1CCCN1C(=O)[C@H](CCCNC(=N)N)NC(=O)[C@@H]1CCCN1C(=O)[C@H](CCCNC(=N)N)NC(=O)[C@@H]1CCCN1C(=O)CC12CC3CC(CC(C3)C1)C2)C(=O)N1CCC[C@H]1C(N)=O [Ad-PRP, Adamantyl-CH2CO-PRPRPRP-NH2] ({Acetyl(1-adamantyl)}-PRPRPRP-NH2)",>512,indifferent interaction,indifferent interaction,>128,>128,>128,>128,>128,>128,>128,>128,>128,>512,>128,>128,>128,>128,>128,>128,>128
"CCCCCCCCCCCC(=O)N1CCC[C@H]1C(=O)N[C@@H](CCCNC(=N)N)C(=O)N1CCC[C@H]1C(=O)NCC(=O)N1CCC[C@H]1C(=O)N[C@@H](CCCNC(=N)N)C(=O)N1CCC[C@H]1C(N)=O [Compound C12-PGP, CH3(CH2)10CO-PRPGPRP-NH2] (Lauroyl-PRPGPRP-NH2)",>512,–,–,>128,>128,>128,>128,>128,>128,>128,>128,128,>512,>128,>128,>128,>128,>128,>128,>128
